Assay [1] concerns the target Serine/threonine-protein kinase PAK 6 (Homo sapiens, UniProt Q9NQU5).
Assay [2] has as its target Cell division cycle 7-related protein kinase (Homo sapiens, UniProt O00311).
In assay [3] the target is T1, Dual specificity protein kinase TTK (Homo sapiens, UniProt P33981).
T1 sequence (P33981 whole entry): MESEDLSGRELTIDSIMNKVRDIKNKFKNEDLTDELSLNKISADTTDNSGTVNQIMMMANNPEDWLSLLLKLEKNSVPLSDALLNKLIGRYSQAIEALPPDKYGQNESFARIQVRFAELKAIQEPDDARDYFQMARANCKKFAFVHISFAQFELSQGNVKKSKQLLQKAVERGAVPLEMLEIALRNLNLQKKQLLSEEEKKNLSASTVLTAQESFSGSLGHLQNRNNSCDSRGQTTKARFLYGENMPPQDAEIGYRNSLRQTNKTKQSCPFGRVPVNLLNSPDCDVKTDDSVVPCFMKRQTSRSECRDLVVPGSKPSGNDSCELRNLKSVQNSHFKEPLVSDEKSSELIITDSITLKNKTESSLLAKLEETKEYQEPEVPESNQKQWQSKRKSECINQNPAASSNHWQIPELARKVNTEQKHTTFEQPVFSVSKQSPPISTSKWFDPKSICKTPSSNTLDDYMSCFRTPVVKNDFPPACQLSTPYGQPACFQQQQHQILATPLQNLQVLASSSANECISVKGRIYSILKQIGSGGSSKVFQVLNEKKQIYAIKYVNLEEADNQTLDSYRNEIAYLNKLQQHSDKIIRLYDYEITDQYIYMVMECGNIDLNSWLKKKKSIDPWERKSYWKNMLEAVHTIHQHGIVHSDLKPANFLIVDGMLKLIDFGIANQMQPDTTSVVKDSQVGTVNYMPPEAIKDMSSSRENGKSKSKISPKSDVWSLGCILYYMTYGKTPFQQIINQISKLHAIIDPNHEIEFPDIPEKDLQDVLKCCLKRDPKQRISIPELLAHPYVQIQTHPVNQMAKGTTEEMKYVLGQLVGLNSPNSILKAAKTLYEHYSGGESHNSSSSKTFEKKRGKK

Assay [4] deals with Serine/threonine-protein kinase N3 (Homo sapiens, UniProt Q6P5Z2).
The target in assay [5] is T2, Isoleucine--tRNA ligase, mitochondrial (Homo sapiens, UniProt Q9NSE4).
T2 sequence (Q9NSE4 whole entry): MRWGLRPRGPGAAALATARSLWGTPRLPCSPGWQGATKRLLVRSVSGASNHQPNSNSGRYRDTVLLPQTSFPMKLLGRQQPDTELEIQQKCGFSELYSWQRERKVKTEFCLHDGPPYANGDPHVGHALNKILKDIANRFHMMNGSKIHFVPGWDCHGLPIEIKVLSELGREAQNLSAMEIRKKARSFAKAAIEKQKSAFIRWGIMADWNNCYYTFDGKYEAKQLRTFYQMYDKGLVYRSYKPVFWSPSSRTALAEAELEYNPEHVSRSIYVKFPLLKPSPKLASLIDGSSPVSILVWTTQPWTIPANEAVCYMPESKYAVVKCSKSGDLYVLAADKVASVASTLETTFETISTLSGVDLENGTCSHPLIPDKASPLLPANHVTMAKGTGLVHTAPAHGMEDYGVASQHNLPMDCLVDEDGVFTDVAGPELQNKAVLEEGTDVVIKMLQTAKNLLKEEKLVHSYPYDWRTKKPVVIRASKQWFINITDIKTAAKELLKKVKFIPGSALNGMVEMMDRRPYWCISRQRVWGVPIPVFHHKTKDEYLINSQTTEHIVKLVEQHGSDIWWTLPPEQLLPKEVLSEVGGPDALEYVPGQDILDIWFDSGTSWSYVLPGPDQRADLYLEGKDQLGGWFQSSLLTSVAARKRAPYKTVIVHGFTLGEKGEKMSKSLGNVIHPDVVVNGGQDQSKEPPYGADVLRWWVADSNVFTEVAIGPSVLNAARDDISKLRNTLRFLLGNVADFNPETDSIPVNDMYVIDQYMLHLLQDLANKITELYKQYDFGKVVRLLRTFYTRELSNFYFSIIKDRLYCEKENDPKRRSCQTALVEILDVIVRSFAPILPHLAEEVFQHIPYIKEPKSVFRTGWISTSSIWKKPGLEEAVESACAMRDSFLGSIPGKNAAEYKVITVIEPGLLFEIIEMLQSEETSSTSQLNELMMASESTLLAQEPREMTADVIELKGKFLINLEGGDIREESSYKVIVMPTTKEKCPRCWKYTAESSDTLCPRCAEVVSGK

The target of assay [6] is Serine/threonine-protein kinase ATR (Homo sapiens, UniProt Q13535).
Assay [7] has as its target T3, Long-chain-fatty-acid--CoA ligase 5 (Homo sapiens, UniProt Q9ULC5).
T3 sequence (Q9ULC5 whole entry): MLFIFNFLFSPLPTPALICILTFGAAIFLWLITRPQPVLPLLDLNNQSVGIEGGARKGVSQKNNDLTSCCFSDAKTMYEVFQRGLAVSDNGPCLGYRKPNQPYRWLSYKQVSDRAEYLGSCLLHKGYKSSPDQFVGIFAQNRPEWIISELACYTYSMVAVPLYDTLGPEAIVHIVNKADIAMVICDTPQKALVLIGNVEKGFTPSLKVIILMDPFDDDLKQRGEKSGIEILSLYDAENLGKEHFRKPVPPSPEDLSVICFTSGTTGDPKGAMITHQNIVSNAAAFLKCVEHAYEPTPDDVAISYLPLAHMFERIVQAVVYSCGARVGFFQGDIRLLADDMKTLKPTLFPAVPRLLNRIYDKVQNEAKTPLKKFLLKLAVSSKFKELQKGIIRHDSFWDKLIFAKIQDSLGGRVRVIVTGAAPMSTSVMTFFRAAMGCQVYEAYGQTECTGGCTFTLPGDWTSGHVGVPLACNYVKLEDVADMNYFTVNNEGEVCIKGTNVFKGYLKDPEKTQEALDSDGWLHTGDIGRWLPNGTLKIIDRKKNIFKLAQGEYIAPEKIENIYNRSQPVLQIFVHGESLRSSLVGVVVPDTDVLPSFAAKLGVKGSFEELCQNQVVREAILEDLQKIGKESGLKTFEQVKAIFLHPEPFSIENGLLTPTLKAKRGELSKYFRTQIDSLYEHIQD

Each structure is given as a SMILES string. Activity calls are given as the source filed them. On the calls: in the data inactive means no Kd found up to 30 µM.

Serine/threonine-protein kinase PAK 6, sequence (Q9NQU5 whole entry): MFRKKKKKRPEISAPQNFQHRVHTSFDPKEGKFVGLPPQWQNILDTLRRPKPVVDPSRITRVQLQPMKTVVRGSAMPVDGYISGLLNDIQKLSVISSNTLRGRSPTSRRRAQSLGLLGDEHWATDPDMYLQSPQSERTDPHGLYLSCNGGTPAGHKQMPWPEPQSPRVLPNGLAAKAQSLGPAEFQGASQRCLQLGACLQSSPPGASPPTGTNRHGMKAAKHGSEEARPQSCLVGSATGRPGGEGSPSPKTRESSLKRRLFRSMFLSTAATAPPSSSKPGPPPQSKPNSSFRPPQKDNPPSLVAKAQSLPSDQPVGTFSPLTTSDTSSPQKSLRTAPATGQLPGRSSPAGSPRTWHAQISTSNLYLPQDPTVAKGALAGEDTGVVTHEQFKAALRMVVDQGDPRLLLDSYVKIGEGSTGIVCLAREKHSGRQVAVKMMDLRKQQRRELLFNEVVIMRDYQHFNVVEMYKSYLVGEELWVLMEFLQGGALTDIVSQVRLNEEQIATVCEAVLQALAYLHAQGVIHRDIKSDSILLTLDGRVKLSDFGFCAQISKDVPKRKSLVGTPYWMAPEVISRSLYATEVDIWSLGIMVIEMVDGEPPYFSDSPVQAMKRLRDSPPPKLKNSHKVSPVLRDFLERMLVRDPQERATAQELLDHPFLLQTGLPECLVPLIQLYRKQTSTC
Serine/threonine-protein kinase N3, sequence (Q6P5Z2 whole entry): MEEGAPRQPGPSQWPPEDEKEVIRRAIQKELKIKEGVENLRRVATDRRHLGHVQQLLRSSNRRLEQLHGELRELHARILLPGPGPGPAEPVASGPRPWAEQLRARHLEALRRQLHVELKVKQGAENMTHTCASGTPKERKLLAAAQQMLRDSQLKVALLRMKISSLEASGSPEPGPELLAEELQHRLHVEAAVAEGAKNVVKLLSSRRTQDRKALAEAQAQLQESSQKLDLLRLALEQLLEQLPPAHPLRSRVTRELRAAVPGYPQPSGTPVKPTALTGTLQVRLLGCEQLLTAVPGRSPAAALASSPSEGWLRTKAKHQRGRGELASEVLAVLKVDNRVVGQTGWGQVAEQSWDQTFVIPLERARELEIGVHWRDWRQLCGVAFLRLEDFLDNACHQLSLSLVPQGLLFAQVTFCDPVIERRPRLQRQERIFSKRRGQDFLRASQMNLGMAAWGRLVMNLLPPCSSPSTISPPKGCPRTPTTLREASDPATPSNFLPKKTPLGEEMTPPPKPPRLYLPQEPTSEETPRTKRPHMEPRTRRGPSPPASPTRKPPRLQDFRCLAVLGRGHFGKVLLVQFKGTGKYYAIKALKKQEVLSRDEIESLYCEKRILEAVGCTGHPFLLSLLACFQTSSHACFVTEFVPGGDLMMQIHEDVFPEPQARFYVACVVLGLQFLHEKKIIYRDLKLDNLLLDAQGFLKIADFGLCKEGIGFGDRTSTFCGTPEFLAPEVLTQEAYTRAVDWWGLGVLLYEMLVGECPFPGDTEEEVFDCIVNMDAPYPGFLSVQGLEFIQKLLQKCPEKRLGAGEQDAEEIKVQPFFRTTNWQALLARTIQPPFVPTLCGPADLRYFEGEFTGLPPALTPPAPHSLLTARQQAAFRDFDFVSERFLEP
Cell division cycle 7-related protein kinase, sequence (O00311 whole entry): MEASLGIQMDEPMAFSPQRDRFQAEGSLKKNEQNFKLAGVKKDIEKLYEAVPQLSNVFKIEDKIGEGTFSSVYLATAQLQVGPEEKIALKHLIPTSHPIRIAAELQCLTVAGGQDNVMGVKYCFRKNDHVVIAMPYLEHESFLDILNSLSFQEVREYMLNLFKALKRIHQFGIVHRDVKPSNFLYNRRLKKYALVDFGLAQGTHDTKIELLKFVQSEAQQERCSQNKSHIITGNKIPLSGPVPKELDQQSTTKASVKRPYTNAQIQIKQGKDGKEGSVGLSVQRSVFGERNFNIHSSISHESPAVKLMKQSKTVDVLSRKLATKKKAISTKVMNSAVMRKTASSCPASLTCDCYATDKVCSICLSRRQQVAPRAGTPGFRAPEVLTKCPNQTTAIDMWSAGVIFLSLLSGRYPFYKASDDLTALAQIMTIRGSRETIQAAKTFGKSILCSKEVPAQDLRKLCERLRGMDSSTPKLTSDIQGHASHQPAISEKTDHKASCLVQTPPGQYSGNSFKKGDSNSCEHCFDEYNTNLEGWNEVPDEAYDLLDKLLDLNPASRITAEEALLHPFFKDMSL
Serine/threonine-protein kinase ATR, sequence (Q13535 whole entry): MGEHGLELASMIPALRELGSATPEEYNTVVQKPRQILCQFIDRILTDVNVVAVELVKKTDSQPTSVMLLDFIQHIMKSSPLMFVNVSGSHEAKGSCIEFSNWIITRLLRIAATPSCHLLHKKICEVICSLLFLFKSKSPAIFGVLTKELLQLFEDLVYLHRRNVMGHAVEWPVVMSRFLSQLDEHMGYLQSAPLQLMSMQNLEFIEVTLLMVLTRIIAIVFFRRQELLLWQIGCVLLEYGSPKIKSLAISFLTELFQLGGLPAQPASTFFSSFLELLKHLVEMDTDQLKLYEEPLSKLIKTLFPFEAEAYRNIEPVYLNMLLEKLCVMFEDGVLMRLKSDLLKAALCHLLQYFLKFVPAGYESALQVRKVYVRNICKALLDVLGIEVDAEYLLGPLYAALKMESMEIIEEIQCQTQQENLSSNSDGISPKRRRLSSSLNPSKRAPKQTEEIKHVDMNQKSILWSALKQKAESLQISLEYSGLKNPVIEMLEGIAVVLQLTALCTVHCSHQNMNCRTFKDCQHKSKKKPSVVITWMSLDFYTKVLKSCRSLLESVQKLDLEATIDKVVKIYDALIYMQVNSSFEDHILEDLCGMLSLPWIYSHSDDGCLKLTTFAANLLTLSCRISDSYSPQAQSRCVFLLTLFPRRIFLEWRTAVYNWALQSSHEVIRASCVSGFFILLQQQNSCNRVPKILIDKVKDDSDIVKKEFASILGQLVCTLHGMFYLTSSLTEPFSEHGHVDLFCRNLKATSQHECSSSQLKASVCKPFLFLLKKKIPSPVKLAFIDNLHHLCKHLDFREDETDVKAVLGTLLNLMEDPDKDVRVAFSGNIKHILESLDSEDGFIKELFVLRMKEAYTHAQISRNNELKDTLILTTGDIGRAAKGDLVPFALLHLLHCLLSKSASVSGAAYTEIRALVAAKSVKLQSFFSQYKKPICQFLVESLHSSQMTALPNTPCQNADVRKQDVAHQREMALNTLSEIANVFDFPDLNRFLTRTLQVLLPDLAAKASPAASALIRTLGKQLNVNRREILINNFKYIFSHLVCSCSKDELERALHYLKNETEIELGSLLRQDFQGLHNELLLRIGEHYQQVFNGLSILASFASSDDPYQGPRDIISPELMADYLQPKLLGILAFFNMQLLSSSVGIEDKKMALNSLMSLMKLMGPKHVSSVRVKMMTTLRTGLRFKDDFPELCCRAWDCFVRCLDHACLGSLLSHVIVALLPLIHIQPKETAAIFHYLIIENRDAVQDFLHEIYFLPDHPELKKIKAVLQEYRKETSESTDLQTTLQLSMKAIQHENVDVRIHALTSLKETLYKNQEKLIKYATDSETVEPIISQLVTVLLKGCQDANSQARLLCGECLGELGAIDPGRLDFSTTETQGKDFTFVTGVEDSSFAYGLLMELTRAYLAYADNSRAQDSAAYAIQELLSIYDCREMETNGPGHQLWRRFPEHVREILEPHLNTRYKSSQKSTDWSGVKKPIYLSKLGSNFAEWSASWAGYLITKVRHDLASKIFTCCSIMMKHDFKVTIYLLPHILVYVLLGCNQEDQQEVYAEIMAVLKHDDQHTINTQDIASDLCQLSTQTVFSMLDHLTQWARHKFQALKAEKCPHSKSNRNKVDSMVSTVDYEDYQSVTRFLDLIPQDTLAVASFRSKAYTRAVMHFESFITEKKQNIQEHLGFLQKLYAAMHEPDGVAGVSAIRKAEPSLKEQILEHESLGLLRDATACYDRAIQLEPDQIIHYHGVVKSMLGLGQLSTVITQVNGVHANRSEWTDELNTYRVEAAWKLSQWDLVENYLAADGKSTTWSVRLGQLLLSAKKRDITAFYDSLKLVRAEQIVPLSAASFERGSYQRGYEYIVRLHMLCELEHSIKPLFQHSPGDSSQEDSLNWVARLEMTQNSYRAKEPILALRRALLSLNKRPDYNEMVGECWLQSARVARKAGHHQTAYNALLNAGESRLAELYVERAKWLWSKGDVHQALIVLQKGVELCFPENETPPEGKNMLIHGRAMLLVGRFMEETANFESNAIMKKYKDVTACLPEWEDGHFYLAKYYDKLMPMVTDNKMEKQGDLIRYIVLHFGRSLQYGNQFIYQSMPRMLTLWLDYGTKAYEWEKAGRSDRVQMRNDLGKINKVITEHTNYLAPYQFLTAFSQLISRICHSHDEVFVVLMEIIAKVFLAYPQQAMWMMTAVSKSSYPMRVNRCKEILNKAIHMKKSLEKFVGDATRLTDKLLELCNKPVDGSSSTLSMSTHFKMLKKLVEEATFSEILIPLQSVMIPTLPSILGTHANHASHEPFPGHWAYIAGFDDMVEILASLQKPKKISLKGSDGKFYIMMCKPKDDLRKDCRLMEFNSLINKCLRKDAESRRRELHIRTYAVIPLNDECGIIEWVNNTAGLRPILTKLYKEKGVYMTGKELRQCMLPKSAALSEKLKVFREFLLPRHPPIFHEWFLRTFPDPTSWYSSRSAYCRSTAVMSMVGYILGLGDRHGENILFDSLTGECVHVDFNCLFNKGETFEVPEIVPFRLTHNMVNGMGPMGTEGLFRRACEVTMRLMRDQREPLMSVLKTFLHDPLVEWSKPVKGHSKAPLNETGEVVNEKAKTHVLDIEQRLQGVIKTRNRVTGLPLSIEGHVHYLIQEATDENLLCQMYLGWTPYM

For orientation: Kd means the concentration at which binding is half-saturated. For the compound `C[C@@H](Oc1cc(C(=O)Nc2ccc(C(=O)N3CCN(C)CC3)cc2)nnc1N)c1c(Cl)ccc(F)c1Cl`, the Kd in assay [1] and in assay [2] was > 30 µM (inactive) in each case.
Take `C[C@H]1CNCCCN1S(=O)(=O)c1cccc2cncc(F)c12`: the Kd in assay [3] and in assay [1] was > 30 µM (inactive) in each case.
`CC(=O)c1cnc2ccc(-c3cc(Cl)c(O)c(Cl)c3)nc2c1N[C@H]1CC[C@H](CN(C)C)CC1`: the Kd in assay [4] and in assay [5] was > 30 µM (inactive) in each case.
Regarding `CCNC(=O)C#Cc1ccc2c(c1)NC(=O)/C2=C(\Nc1ccc(CN(C)C)cc1)c1ccccc1`, the dissociation constant Kd in assay [2] is 3.99 µM (active); in assay [6], > 30 µM (inactive); in assay [7] it was > 30 µM (inactive).
For the compound `COCc1c(-c2ccc(NC(=O)Nc3cc(C(F)(F)F)ccc3F)c(F)c2)c2c(N)ncnn2c1CN1CCOCC1`, the Kd in assay [4], in assay [2], in assay [6], in assay [7] and in assay [5] was > 30 µM (inactive) each time.
In the case of `COc1cc(Nc2ncc3c(n2)-c2ccc(Cl)cc2C(c2c(F)cccc2OC)=NC3)ccc1C(=O)O` [ALISERTIB], the Kd in assay [4], in assay [3], in assay [1] and in assay [7] was > 30 µM (inactive) in each case.
In the case of `Cc1nc(NC(=O)N2CCC[C@H]2C(N)=O)sc1-c1ccnc(C(C)(C)C(F)(F)F)c1` [ALPELISIB], the Kd in assay [6] and in assay [5] was > 30 µM (inactive) each time.
With `CNC(=O)c1ccccc1Sc1ccc2c(/C=C/c3ccccn3)n[nH]c2c1` [AXITINIB], the Kd in assay [4], in assay [2] and in assay [7] was > 30 µM (inactive) throughout.
In the case of `COc1cc([C@@H]2c3cc4c(cc3[C@H](O)[C@H]3COC(=O)[C@@H]23)OCO4)cc(OC)c1OC` [AXL-1717], the Kd in assay [3], in assay [2], in assay [7] and in assay [5] was > 30 µM (inactive) throughout.
As to `NC(=O)Nc1cc(-c2cccc(F)c2)sc1C(=O)N[C@H]1CCCNC1` [AZD-7762], the Kd in assay [3] and in assay [7] was > 30 µM (inactive) each time.
As to `Cc1cc(C(=O)NOCCO)c(Nc2ccc(I)cc2F)n(C)c1=O` [AZD-8330], the Kd in assay [4] and in assay [3] was > 30 µM (inactive) each time.
As for `Cc1nc2cc(-n3ncc(C(=O)c4cc5ccccc5[nH]4)c3N)ccc2[nH]1` [FGFR INHIBITOR DEBIO 1347], the Kd in assay [2], in assay [7] and in assay [5] was > 30 µM (inactive) throughout.
For the compound `CCn1cc(-c2ccnc3[nH]c(-c4cccc(CN(C)C)c4)cc23)c(-c2ccc(NC(=O)N(C)C)cc2)n1` [GSK-1070916], the Kd in assay [4], in assay [3] and in assay [1] was > 30 µM (inactive) throughout.
Consider `COc1ccc(S(=O)(=O)N(C(C)=O)c2ccccc2/C=C/c2cc[n+]([O-])cc2)cc1` [HMN-214], for which the Kd in assay [4], in assay [1], in assay [2] and in assay [6] was > 30 µM (inactive) in each case.
Regarding `CN(C[C@@H]1COCCO1)S(=O)(=O)Nc1ccc2ccc3ncc(-c4cnn(C)c4)cc3c(=O)c2c1` [MK-2461], the Kd in assay [2] and in assay [5] was > 30 µM (inactive) throughout.
Consider `Cn1cc(-c2cnc3ccc4ccc(CS(=O)(=O)NCc5ccccn5)cc4c(=O)c3c2)cn1` [MK-8033], for which the Kd in assay [4], in assay [1], in assay [2], in assay [6], in assay [7] and in assay [5] was > 30 µM (inactive) throughout.
With `Cc1[nH]c(/C=C2\C(=O)Nc3ccccc32)c(C)c1CCC(=O)O` [ORANTINIB], the Kd in assay [4], in assay [3], in assay [1], in assay [7] and in assay [5] was > 30 µM (inactive) each time.
As to `N#CC[C@H](C1CCCC1)n1cc(-c2ncnc3[nH]ccc23)cn1` [RUXOLITINIB], the Kd in assay [2] and in assay [5] was > 30 µM (inactive) each time.
Take `O=c1[nH]ccc2cc(OC3CCNCC3)ccc12` [SAR-407899 FREE BASE]: the Kd in assay [1], in assay [6], in assay [7] and in assay [5] was > 30 µM (inactive) throughout.
On to `CN1CCN(CCOc2cc(OC3CCOCC3)c3c(Nc4c(Cl)ccc5c4OCO5)ncnc3c2)CC1` [SARACATINIB], for which the Kd in assay [4], in assay [3], in assay [1], in assay [6] and in assay [7] was > 30 µM (inactive) each time.
On to `Cn1cc(-c2cnn3c(N)c(Br)c([C@@H]4CCCNC4)nc23)cn1` [SCH-900776], for which the Kd in assay [1], in assay [2] and in assay [7] was > 30 µM (inactive) throughout.
As to `Cn1ncc(Cl)c1-c1cc(C(=O)N[C@H](CN)Cc2ccc(F)c(F)c2)oc1Cl` [UPROSERTIB], the Kd in assay [3] and in assay [1] was > 30 µM (inactive) throughout.
As to `CC(C)c1cc(CNc2nc(Nc3cc(C4CC4)[nH]n3)cc(N3CCN(C)CC3)n2)on1` [XL-228], the Kd in assay [3], in assay [1], in assay [6] and in assay [7] was > 30 µM (inactive) in each case.
On to `CN1C/C=C/CCOc2cccc(c2)-c2ccnc(n2)Nc2cccc(c2)C1` [ZOTIRACICLIB], for which the Kd in assay [6], in assay [7] and in assay [5] was > 30 µM (inactive) in each case.

These data come from ChEMBL document CHEMBL3991601, “The target landscape of clinical kinase drugs” (Science, 2017).
